Measurements reported in patent publication US20240327412A1, “FACTOR XIIA INHIBITORS” (KALVISTA PHARMACEUTICALS LIMITED, priority 2021, published 2024).

Columns and labels:
Format in all cases: biochemical
Thrombin = Thrombin (Homo sapiens, UniProt P00734); test: Related protease inhibition: Thrombin (fluorogenic substrate at Km); details: class symbols per Table 18
Experimental: (§1) In vitro inhibition of related proteases was determined using an IC50 assay based on standard literature methods (see e.g. Shori et al., Biochem. Pharmacol., 1992, 43, 1209; Bouckaert et al., European Journal of Medicinal Chemistry 110 (2016) 181). Human serine protease enzyme Plasma Kallikrein, KLK1, FXa, Plasmin, Thrombin and Trypsin were assayed for enzymatic activity using an appropriate fluorogenic substrate at Km concentration, FXIa at fixed substrate concentration of 100 μM and various concentrations of the test compound. Protease activity was measured by monitoring the accumulation of liberated fluorescence from the substrate over 5 min at 25° C. The linear rate of fluorescence increase per minute was expressed as percentage (%) activity. IC50 values were calculated as the concentration of inhibitor giving 50% inhibition of the uninhibited enzyme activity (100%).

Plasmin = Plasmin (Homo sapiens, UniProt P00747); test: Related protease inhibition: Plasmin (fluorogenic substrate at Km); details: class symbols per Table 18
Chain of Plasmin (P00747 581-810 limits assumed): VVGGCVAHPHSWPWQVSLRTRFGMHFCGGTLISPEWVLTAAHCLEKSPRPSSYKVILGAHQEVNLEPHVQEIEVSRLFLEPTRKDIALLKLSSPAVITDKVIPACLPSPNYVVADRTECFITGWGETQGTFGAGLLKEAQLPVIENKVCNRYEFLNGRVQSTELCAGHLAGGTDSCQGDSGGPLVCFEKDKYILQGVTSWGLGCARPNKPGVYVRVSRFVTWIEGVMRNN
Chain of Plasmin (P00747 97-580 partner limits assumed): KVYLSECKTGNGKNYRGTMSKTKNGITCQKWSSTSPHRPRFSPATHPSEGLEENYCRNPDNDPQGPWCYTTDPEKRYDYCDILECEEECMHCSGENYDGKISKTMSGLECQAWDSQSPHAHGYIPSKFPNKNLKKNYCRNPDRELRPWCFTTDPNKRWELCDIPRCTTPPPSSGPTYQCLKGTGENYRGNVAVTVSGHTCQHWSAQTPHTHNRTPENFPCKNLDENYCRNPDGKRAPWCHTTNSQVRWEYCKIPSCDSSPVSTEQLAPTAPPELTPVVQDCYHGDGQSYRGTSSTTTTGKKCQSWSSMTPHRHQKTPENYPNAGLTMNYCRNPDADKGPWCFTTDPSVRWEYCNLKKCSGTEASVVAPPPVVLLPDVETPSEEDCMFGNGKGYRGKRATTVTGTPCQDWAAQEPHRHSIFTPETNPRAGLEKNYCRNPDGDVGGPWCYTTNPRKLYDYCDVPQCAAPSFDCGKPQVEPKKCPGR
Experimental: as §1

FXa = FXa (Homo sapiens, UniProt P00742); test: Related protease inhibition: FXa (fluorogenic substrate at Km); details: class symbols per Table 18
Chain of FXa (P00742 235-488 limits assumed): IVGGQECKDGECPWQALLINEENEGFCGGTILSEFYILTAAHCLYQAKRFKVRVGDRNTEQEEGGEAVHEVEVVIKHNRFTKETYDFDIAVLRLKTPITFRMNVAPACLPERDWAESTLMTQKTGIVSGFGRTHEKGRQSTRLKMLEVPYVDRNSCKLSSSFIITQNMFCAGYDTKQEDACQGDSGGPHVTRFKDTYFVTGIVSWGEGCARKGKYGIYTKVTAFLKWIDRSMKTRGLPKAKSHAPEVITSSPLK
Chain of FXa (P00742 41-179 partner limits assumed): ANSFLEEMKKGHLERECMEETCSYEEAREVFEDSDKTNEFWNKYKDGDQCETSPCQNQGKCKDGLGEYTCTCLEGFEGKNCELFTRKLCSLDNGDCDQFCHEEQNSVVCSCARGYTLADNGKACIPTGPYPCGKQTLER
Experimental: as §1

KLK1 = KLK1 (Homo sapiens, UniProt P06870); test: Related protease inhibition: KLK1 (fluorogenic substrate at Km); details: class symbols per Table 18
Chain of KLK1 (P06870 25-262): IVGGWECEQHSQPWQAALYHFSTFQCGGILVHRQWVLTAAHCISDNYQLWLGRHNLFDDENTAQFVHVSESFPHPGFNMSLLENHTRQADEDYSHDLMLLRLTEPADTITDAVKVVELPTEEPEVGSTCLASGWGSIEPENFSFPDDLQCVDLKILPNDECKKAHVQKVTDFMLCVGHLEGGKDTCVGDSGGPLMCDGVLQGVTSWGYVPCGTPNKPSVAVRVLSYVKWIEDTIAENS
Experimental: as §1

Plasma Kallikrein = biological target: T1, Plasma Kallikrein (Homo sapiens, UniProt P03952); test: Related protease inhibition: Plasma Kallikrein (fluorogenic substrate at Km); details: class symbols per Table 18, read-out: IC50 (human PKal)
T1 construct: FXIIa converts plasma prekallikrein (PK) to plasma kallikrein (PKa)
T1 sequence (P03952 391-638 limits assumed): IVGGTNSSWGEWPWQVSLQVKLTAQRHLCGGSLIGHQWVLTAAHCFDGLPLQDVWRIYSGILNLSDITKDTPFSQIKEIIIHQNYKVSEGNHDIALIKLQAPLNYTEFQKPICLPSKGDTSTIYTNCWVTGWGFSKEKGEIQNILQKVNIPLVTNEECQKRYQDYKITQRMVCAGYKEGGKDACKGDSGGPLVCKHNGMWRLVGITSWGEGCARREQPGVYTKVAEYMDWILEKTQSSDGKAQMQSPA
T1 sequence (P03952 20-390 partner limits assumed): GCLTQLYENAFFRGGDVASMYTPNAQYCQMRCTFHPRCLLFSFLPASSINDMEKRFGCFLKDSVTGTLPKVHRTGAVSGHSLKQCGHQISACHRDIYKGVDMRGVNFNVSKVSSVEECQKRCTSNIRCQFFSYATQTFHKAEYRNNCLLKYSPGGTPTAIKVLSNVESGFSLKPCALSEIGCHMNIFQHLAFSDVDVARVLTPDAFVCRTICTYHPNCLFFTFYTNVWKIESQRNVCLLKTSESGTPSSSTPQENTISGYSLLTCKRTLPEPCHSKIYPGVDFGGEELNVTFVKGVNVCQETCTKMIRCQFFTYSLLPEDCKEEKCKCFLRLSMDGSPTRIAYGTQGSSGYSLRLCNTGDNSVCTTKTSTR
Procedure, shortened: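 Fluorogenic substrate at Km for thrombin, trypsin and plasma kallikrein; FXIa run at fixed 100 μM substrate. Varied inhibitor concentrations, fluorescence accumulation read over 5 min, 25° C. IC50 = concentration giving 50% inhibition versus uninhibited (100%) activity.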

Trypsin = Trypsin (Homo sapiens, UniProt P07477); test: Related protease inhibition: Trypsin (fluorogenic substrate at Km); details: class symbols per Table 18
Experimental: as §1

Human Factor XIIa = biological target: T2, Human Factor XIIa (Homo sapiens, UniProt P00748); test: Determination of FXIIa inhibition (fluorogenic substrate H-DPro-Phe-Arg-AFC, IC50 assay); details: substrate at Km concentration, 25° C.; category scale; read-out: Human FXII IC50 (nm)
T2 construct: Proteolytic cleavage of FXII to heavy and light chains of FXIIa dramatically increases catalytic activity; purchased Enzyme Research Laboratories
T2 sequence (P00748 373-615 limits assumed): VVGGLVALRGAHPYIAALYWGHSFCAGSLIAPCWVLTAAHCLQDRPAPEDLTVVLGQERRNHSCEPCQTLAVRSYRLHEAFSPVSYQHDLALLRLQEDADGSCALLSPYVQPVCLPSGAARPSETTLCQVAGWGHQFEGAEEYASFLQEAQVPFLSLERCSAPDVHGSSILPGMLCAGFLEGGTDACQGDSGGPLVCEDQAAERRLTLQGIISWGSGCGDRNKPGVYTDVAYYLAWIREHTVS
T2 sequence (P00748 20-372 partner limits assumed): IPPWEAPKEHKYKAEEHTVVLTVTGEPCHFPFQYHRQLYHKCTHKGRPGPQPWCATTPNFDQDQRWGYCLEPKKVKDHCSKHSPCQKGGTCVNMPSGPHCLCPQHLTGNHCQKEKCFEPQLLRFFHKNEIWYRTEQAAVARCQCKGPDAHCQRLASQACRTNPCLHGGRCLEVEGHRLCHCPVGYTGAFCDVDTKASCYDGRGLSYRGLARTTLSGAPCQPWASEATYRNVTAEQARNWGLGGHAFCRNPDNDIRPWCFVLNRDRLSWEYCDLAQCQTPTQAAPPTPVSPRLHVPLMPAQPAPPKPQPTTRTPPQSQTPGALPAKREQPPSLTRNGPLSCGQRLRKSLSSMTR
Procedure, shortened: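 At substrate Km and 25° C., the rate of AFC release from H-DPro-Phe-Arg-AFC by human Factor XIIa was followed for 5 min across compound concentrations. Inhibition was derived as percent of uninhibited rate, giving IC50.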

Row | Compound | IC50 (Thrombin) | IC50 (Plasmin) | IC50 (FXa) | IC50 (KLK1) | IC50 (Plasma Kallikrein) | IC50 (Trypsin) | IC50 (Human Factor XIIa)
1 | Cc1cc(OCC23CCOC(CNc4cccc5c(N)nccc45)(C2)C3)cc(=O)n1C [Example 10928, 4-((1-(((1-Aminoisoquinolin-5-yl)amino)methyl)-2-oxabicyclo[3.1.1]heptan-5-yl)methoxy)-1,6-dimethylpyridin-2(1H)-one] | > 40 µM | > 40 µM | 10 to 40 µM | 10 to 40 µM | > 40 µM | 10 to 40 µM | 0.01 to 0.1 µM
2 | Cc1cnc2ccc(OCC34CC(CNc5cccc6c(N)nccc56)(CO3)C4)cn12 [Example 2212, N5-((1-(((3-methylimidazo[1,2-a]pyridin-6-yl)oxy)methyl)-2-oxabicyclo[2.1.1]hexan-4-yl)methyl)isoquinoline-1,5-diamine] | > 40 µM | > 40 µM | 10 to 40 µM | 1 to 3 µM | 10 to 40 µM | 10 to 40 µM | 0.01 to 0.1 µM
3 | Cn1ccc(OCC23CN(C(=O)NCc4ccccc4)C(CNc4cccc5c(N)nccc45)(C2)C3)cc1=O [Example 12017, 1-(((1-aminoisoquinolin-5-yl)amino)methyl)-N-benzyl-4-(((1-methyl-2-oxo-1,2-dihydropyridin-4-yl)oxy)methyl)-2-azabicyclo[2.1.1]hexane-2-carboxamide] | > 40 µM | 10 to 40 µM | 10 to 40 µM | 3 to 10 µM | 10 to 40 µM | > 40 µM | 
4 | Cc1cc(OCC23CN(C(=O)NCc4ccccc4)C(CNc4cccc5c(N)nccc45)(C2)C3)cc(=O)n1C [Example 12038, 1-(((1-aminoisoquinolin-5-yl)amino)methyl)-N-benzyl-4-(((1,6-dimethyl-2-oxo-1,2-dihydropyridin-4-yl)oxy)methyl)-2-azabicyclo[2.1.1]hexane-2-carboxamide] | > 40 µM | 10 to 40 µM | 1 to 3 µM | 3 to 10 µM | 3 to 10 µM | 10 to 40 µM | 0.001 to 0.01 µM
5 | Nc1nccc2c(NCC34CC(COc5ccn6cnnc6c5)(CO3)C4)cccc12 [Example 6629, N5-((4-(([1,2,4]triazolo[4,3-a]pyridin-7-yloxy)methyl)-2-oxabicyclo[2.1.1]hexan-1-yl)methyl)isoquinoline-1,5-diamine] | > 40 µM | 10 to 40 µM | > 40 µM | 1 to 3 µM | > 40 µM | 10 to 40 µM | 0.01 to 0.1 µM
6 | Cn1ccc(OCC23CN(C(=O)Nc4ccccc4)C(CNc4cccc5c(N)nccc45)(C2)C3)cc1=O [Example 12036, 1-(((1-aminoisoquinolin-5-yl)amino)methyl)-4-(((1-methyl-2-oxo-1,2-dihydropyridin-4-yl)oxy)methyl)-N-phenyl-2-azabicyclo[2.1.1]hexane-2-carboxamide] | > 40 µM | 3 to 10 µM | 10 to 40 µM | 1 to 3 µM | 10 to 40 µM | > 40 µM | 0.001 to 0.01 µM
7 | Nc1nccc2c(NCC34CC(COc5ccc6nnc(C(F)F)n6n5)(CO3)C4)cccc12 [Example 6608, N5-((4-(((3-(difluoromethyl)-[1,2,4]triazolo[4,3-b]pyridazin-6-yl)oxy)methyl)-2-oxabicyclo[2.1.1]hexan-1-yl)methyl)isoquinoline-1,5-diamine] | > 40 µM |  | > 40 µM | 3 to 10 µM | > 40 µM |  | 0.3 to 1 µM
8 | Nc1nccc2c(NCC34CC(COc5ccn6cnnc6c5)(CCO3)C4)cccc12 [Example 10926, 5-N-[[5-([1,2,4]Triazolo[4,3-a]pyridin-7-yloxymethyl)-2-oxabicyclo[3.1.1]heptan-1-yl]methyl]isoquinoline-1,5-diamine] | > 40 µM | > 40 µM | > 40 µM | 3 to 10 µM | > 40 µM | 3 to 10 µM | 0.01 to 0.1 µM
9 | Cn1ccc(OCC23CC(CNc4cccc5c(N)nccc45)(CO2)C3)cc1=O [Example 2205, 4-((4-(((1-aminoisoquinolin-5-yl)amino)methyl)-2-oxabicyclo[2.1.1]hexan-1-yl)methoxy)-1-methylpyridin-2(1H)-one] | > 40 µM | > 40 µM | > 40 µM | 10 to 40 µM | > 40 µM | > 40 µM | 0.3 to 1 µM
10 | Nc1nccc2c(NCC34COC(COc5ccc6nnc(C(F)F)n6n5)(C3)C4)cccc12 [Example 2204, N5-((1-(((3-(difluoromethyl)-[1,2,4]triazolo[4,3-b]pyridazin-6-yl)oxy)methyl)-2-oxabicyclo[2.1.1]hexan-4-yl)methyl)isoquinoline-1,5-diamine] | > 40 µM |  | > 40 µM | 3 to 10 µM | > 40 µM |  | 0.3 to 1 µM
11 | Nc1nccc2c(NC[C@H]3C[C@@H](COc4ccn5ccnc5c4)C3)cccc12 [Example 5003, N5-((cis-3-((imidazo[1,2-a]pyridin-7-yloxy)methyl)cyclobutyl)methyl)isoquinoline-1,5-diamine] | > 40 µM |  | > 40 µM | 3 to 10 µM | > 40 µM |  | 0.1 to 0.3 µM

Now from value to molecule:

Row | IC50 (Thrombin) | IC50 (Plasmin) | IC50 (FXa) | IC50 (KLK1) | IC50 (Plasma Kallikrein) | IC50 (Trypsin) | IC50 (Human Factor XIIa) | Compound
12 | > 40 µM | > 40 µM | > 40 µM | 1 to 3 µM | > 40 µM | > 40 µM | 0.01 to 0.1 µM | Cn1ccc(OCC23CN(CCCc4ccccc4)C(CNc4cccc5c(N)nccc45)(C2)C3)cc1=O [Example 12019, 4-((1-(((1-Aminoisoquinolin-5-yl)amino)methyl)-2-(3-phenylpropyl)-2-azabicyclo[2.1.1]hexan-4-yl)methoxy)-1-methylpyridin-2(1H)-one]
13 | 10 to 40 µM |  | > 40 µM | 3 to 10 µM | > 40 µM |  | 1 to 3 µM | Nc1nccc2c(NCC34CC(COC5Cc6nccn6C5)(C3)C4)cccc12 (stereo not drawn) [Example 1118, N5-((3-(((6,7-dihydro-5H-pyrrolo[1,2-a]imidazol-6-yl)oxy)methyl)bicyclo[1.1.1]pentan-1-yl)methyl)isoquinoline-1,5-diamine]
14 | 10 to 40 µM |  | 1 to 3 µM | 3 to 10 µM | > 40 µM |  | 3 to 10 µM | Nc1nccc2c(NCC34CC(COc5ccc6nc[nH]c6c5)(C3)C4)cccc12 [Example 1105, N5-((3-(((1H-benzo[d]imidazol-6-yl)oxy)methyl)bicyclo[1.1.1]pentan-1-yl)methyl)isoquinoline-1,5-diamine]
15 | 10 to 40 µM |  | 1 to 3 µM | 3 to 10 µM | > 40 µM |  | 3 to 10 µM | Nc1nccc2c(NCC34CC(CN5CCn6ccnc6C5)(C3)C4)cccc12 [Example 1004, 5-N-[[3-(6,8-Dihydro-5H-imidazo[1,2-a]pyrazin-7-ylmethyl)-1-bicyclo[1.1.1]pentanyl]methyl]isoquinoline-1,5-diamine]
16 | 10 to 40 µM |  | 10 to 40 µM | 3 to 10 µM | > 40 µM |  | 0.3 to 1 µM | Cn1ccc(OCC23CC(CNc4cccc5c(N)nccc45)(C2)C3)cc1=O [Example 1019, 4-[[3-[[(1-aminoisoquinolin-5-yl)amino]methyl]-1-bicyclo[1.1.1]pentanyl]methoxy]-1-methylpyridin-2-one]
17 | 10 to 40 µM |  | 10 to 40 µM | 1 to 3 µM | > 40 µM |  | 0.3 to 1 µM | Nc1nccc2c(NCC34CC(COc5ccc6c(c5)C(=O)NC6)(C3)C4)cccc12 [Example 1109, 6-((3-(((1-aminoisoquinolin-5-yl)amino)methyl)bicyclo[1.1.1]pentan-1-yl)methoxy)isoindolin-1-one]
